In patent US6566376B1, “Diphenyl-piperidine derivative” (AstraZeneca UK Limited, priority 1999, dated 2003):
Counter-ions that a name gives are not always drawn.

First: O=Cc1cn(Cc2ccc(Cl)cc2)nc1CN1CCC(c2ccccc2)(c2ccccc2)CC1
Second: OCc1cn(Cc2ccc(Cl)cc2)nc1CN1CCC(c2ccccc2)(c2ccccc2)CC1
The melting point of the first is higher: 133 to 134 °C for the first, 104 to 105 °C for the second.

Compared with `Clc1ccc(Cn2nncc2CN2CCC(c3ccccc3)(c3ccccc3)CC2)cc1`, `Clc1ccc(Cn2cc(CN3CCC(c4ccccc4)(c4ccccc4)CC3)nn2)cc1` is lower in melting point: 195 °C for the first, 148 °C for the second.

Compared with `O=C(O)c1c(CN2CCC(c3ccccc3)(c3ccccc3)CC2)ncn1Cc1ccc(Cl)cc1`, `NC(=O)c1c(CN2CCC(c3ccccc3)(c3ccccc3)CC2)ncn1Cc1ccc(Cl)cc1` is higher in melting point: 135 to 136 °C for the first, 227 to 228 °C for the second.

First: Clc1cccc(Cn2ccc(CN3CCC(c4ccccc4)(c4ccccc4)CC3)n2)c1
Second: Clc1ccc(Cn2ccc(CN3CCC(c4ccccc4)(c4ccccc4)CC3)n2)cc1 (as salt: hydrochloride)
The melting point of the first is lower: 136 to 137 °C for the first, 137 to 138 °C for the second.

First: Cc1ccc(Cn2ccc(CN3CCC(c4ccccc4)(c4ccccc4)CC3)n2)cc1C
Second: Clc1ccc(Cn2ccc(CN3CCC(c4ccccc4)(c4ccccc4)CC3)n2)cc1Cl (as salt: hydrochloride)
The melting point of the first is lower: 139 to 140 °C for the first, 191 to 192 °C for the second.

First: Fc1ccc(Cn2ccc(CN3CCC(c4ccccc4)(c4ccccc4)CC3)n2)cc1 (as salt: hydrochloride)
Second: Cc1ccc(Cn2ccc(CN3CCC(c4ccccc4)(c4ccccc4)CC3)n2)cc1 (as salt: hydrochloride)
The melting point of the first is higher: 192 to 193 °C for the first, 147 to 148 °C for the second.

First: COc1cc(Cl)ccc1Cn1ccc(CN2CCC(c3ccccc3)(c3ccccc3)CC2)n1 (as salt: hydrochloride)
Second: Oc1cc(Cl)ccc1Cn1ccc(CN2CCC(c3ccccc3)(c3ccccc3)CC2)n1 (as salt: hydrochloride)
The melting point of the first is lower: 73 to 74 °C for the first, 260 to 261 °C for the second.

First: CN(C)C(=O)COc1cc(Cl)ccc1Cn1ccc(CN2CCC(c3ccccc3)(c3ccccc3)CC2)n1 (as salt: hydrochloride)
Second: Clc1ccc(Cn2ccc(CN3CCC(c4ccccc4)(c4ccccc4)CC3)n2)c(Cl)c1 (as salt: hydrochloride)
The melting point of the first is higher: 181 to 182 °C for the first, 101 to 102 °C for the second.

First: Clc1ccc(Cn2cnc(CN3CCC(c4ccccc4)(c4ccccc4)CC3)c2)cc1 (as salt: hydrochloride)
Second: Clc1ccc(Cc2ncc(CN3CCC(c4ccccc4)(c4ccccc4)CC3)[nH]2)cc1 (as salt: hydrochloride)
The melting point of the first is higher: 254 to 255 °C for the first, 186 to 187 °C for the second.

Compared with `FC(F)(F)c1ccc(Cn2ccc(CN3CCC(c4ccccc4)(c4ccccc4)CC3)n2)cc1` (as salt: hydrochloride), `O=C(c1cnc(Cc2ccc(Cl)cc2)[nH]1)N1CCC(c2ccccc2)(c2ccccc2)CC1` [Example 23, [2-(4-Chlorobenzyl)-1H-imidazol-5-yl](4,4-diphenyl-1-piperidinyl)methanone] is higher in melting point: 66 to 67 °C for the first, 105 to 106 °C for the second.
